Assays:
full-length human Hpk1 = biological target: T1, full-length human Hpk1 (Homo sapiens, UniProt Q92918); test: HPK1 kinase assay (ADP Glo Kinase Assay); assay type: biochemical; conditions: full-length human GST-Hpk1, ADP Glo, 75 μM ATP; for IC50: read-out: Hpk1 biochemical (pIC50) (converted)
T1 construct: A recombinant fusion protein consisting of full-length human Hpk1; GST (N)
Procedure: Pharmacological Part HPK1 Kinase Assay
A recombinant fusion protein consisting of full-length human Hpk1 with an N-terminal Glutatione S-transferase (GST) tag was produced in a baculovirus/insect cell expression system. GST-Hpk1 protein was purified from cell lysates by glutathione sepharose affinity chromatography. Kinase inhibition was determined using the ADP Glo™ Kinase Assay kit (Promega, V9101). Test compounds were prepared by serial dilution in dimethyl sulfoxide (DMSO) and 0.1 μl of each dilution was spotted onto a 384-well white Proxiplate (Perkin Elmer, 6008289). 8 μl of kinase assay buffer (40 mM Tris pH 7.5, 2 mM dithiothreitol (DTT), 0.05% Bovine Serum Albumin, 5 mM MgCl2) containing Hpk1 protein was transferred to each well and incubated for 30-45 minutes at room temperature. The enzymatic reaction was started by adding 2 μl of kinase assay buffer containing 75 μM ATP. After 120 minutes, the reaction was stopped by adding 3 μl of ADP Glo™ reagent (Promega, V9101) and incubating 45 minutes at room temperature.

Hpk1 = Hpk1 (Homo sapiens, UniProt Q92918); test: SLP76 phosphorylation assay (SLP76 pS376 in lysates of HEK293 cells engineered to express Hpk1 and SLP76); assay type: cell-based; conditions: HEK293 cells expressing Hpk1 and SLP76, 4 hours incubation; for IC50: read-out: pSLP76 (HEK293) (pIC50) (converted)
Chain of Hpk1 (Q92918 whole entry): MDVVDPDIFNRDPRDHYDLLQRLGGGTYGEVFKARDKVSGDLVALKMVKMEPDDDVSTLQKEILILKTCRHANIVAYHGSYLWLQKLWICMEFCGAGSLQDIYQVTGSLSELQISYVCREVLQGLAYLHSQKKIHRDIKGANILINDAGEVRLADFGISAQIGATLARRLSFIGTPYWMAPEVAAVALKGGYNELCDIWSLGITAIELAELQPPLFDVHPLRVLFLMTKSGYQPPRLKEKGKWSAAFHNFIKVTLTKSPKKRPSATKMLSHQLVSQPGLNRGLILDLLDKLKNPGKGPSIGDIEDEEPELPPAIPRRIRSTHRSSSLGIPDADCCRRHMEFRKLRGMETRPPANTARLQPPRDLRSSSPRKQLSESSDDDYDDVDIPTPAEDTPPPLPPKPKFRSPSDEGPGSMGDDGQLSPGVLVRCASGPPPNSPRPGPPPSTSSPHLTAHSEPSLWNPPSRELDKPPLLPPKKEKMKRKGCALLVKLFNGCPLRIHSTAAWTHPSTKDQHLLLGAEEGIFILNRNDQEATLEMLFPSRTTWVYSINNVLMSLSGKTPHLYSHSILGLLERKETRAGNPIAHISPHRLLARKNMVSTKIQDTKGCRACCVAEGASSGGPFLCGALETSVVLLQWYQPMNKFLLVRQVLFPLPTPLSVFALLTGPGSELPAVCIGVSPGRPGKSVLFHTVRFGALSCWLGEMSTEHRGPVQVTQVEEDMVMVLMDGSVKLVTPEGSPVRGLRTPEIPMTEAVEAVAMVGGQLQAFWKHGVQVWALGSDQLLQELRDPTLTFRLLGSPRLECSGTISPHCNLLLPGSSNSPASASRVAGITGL
Procedure: SLP76 Phosphorylation Assay
Hpk1 inhibition in cells was determined by detection of SLP76 phosphorylation at S376 in lysates from HEK293 cells engineered to express Hpk1 and SLP76. Serial dilutions of test compounds were prepared in cell culture medium and 20 μl was transferred into each well of a 96-well plate containing HEK293 cells in 180 μl of culture medium. After incubation for 4 hours at 37° C./5% CO2, the culture medium was removed, plates were put on ice and cells washed with cold Minimal Essential Medium before lysing in 90 μl of cold Mammalian Protein Extraction Reagent (Thermo Scientific, 78501) for 30 minutes on ice. The cell lysates were transferred to another 96-well plate, centrifuged 10 minutes at 3000 rcf (4° C.) and 30 μl transferred to a 96-well High-bind plate (MSD, L15XB-3). After coating overnight at 4° C., the cell lysate was removed, wells were washed with base buffer (TBS, 0.2% Tween-20), and blocking solution (base buffer containing 3% MSD blocker A) was added to each well for 1 hour at room temperature. The blocking solution was removed, the wells were washed with base buffer, and detection antibody (SLP76 pS376) was added in 25 μl base buffer containing 1% MSD blocker A to each well. After a 2 h incubation at room temperature, the detection antibody was removed, wells were washed four times with base buffer, 25 μl SULFO-TAG labeled goat anti-rabbit secondary antibody (MSD, R32AB-1) in base buffer containing 1% MSD blocker A was added to each well and left for 1 hour at room temperature. Wells were washed 4 times with base buffer, 150 μl Read Buffer T was added to each well, and the plates were read in a Mesoscale plate reader (MSD). IC50 values were determined by curve-fitting the electrochemiluminescent signals obtained from the lysates of HEK293 cells expressing Hpk1 and SLP76 treated with test compounds at various concentrations minus the signal obtained from HEK293 cells expressing SLP76 only.

T1 sequence (Q92918 whole entry, the tested form may be a part): as the sequence (Q92918 whole entry) above

Row | IC50 (full-length human Hpk1) [nM] | IC50 (Hpk1) [nM] | Hpk1 biochemical (pIC50) (full-length human Hpk1) | pSLP76 (HEK293) (pIC50) (Hpk1) | Structure (SMILES)
1 | 42.7 | 2140 |  |  | C[C@H]1CCN[C@@H]1c1cc(-c2cnc(N)c(-c3ccncc3)c2)ccc1C1CCOCC1 (racemic) [Co. 9]
2 | 5.75 | 240 |  |  | Nc1ncc(-c2ccc(C3CCOCC3)c([C@@H]3CCCN3)c2)cc1-c1ccnc(F)c1F [Co. 27]
3 | 631 | > 10000 |  |  | Nc1ncc(-c2ccc(C3CCOCC3)c([C@@H]3C[S@@+]([O-])CCN3)c2)cc1-c1ccnc(F)c1 (single isomer, unassigned) [Co. 15c]
4 |  |  | 6.84 | 5.1 | CC(=O)N1CCC(c2cc(-c3ccc(C4CCOCC4)c([C@@H]4CCCN4)c3)cnc2N)CC1 [Co. 96]
5 | 8.91 | 1100 |  |  | CC1(C)COc2ncc(-c3cc(-c4ccc(C5CCOCC5)c([C@@H]5CCCN5)c4)cnc3N)cc21 [Co. 40]
6 | 58.9 | 5370 |  |  | Nc1ncc(-c2ccc(C3CCOCC3)c([C@@H]3CCCN3)c2)cc1-c1ccnc(C(F)(F)F)c1 [Co. 63]
7 | 56.2 | 1860 |  |  | CN(C)Cc1cc(-c2cnc(N)c(-c3ccnc(NCCO)c3)c2)ccc1C1CCOCC1 [Co. 74]
8 | 38 | 6030 |  |  | CC(C)(C#N)c1cc(-c2cc(-c3ccc(C4CCOCC4)c([C@@H]4CCCN4)c3)cnc2N)ccn1 [Co. 29]
9 | 15.5 | 813 |  |  | Cn1cc(-c2cc(-c3ccc(C4CCOCC4)c([C@@H]4COCCN4)c3)cnc2N)cn1 [Co. 81]
10 | 25.1 | 479 |  |  | Cn1cc(-c2nc(-c3ccc(C4CCOCC4)c([C@@H]4COCCN4)c3)cnc2N)cn1 [Co. 84]
11 | 9330 | > 10000 |  |  | Nc1ncc(-c2ccc(C3CCOCC3)c([C@H]3C[S@@+]([O-])CCN3)c2)cc1-c1ccnc(F)c1 (single isomer, unassigned) [Compound 15a]
12 | 120 | 3980 |  |  | Cc1cc(-c2ccc(C3CCOCC3)c([C@@H]3COCCN3)c2)cnc1N [Co. 86]
13 | 77.6 | 5620 |  |  | Nc1ncc(-c2ccc(C3CCOCC3)c([C@@H]3CC(F)(F)CN3)c2)cc1-c1ccnc(F)c1 (single isomer, unassigned) [Co. 59]
14 | 24 | 2510 |  |  | Nc1ncc(-c2ccc(C3=CCS(=O)(=O)CC3)c([C@@H]3CCCN3)c2)cc1-c1ccnc(F)c1 [Co. 49]
15 | 13.2 | 891 |  |  | COc1cnccc1-c1cc(-c2ccc(C3CCOCC3)c([C@@H]3CCCN3)c2)cnc1N [Co. 24]
16 | 38 | 1150 |  |  | Nc1ncc(-c2ccc(C3CCOCC3)c([C@@H]3COCCN3)c2)cc1Cl [Co. 85]
